{"source": "patent US9643960B2", "about": "“Procaspase activating compounds” (The Board of Trustees of the University of Illinois, priority 2009, dated 2017)", "key": {"[1]": {"assay": "Formulation of PAC-1 in aqueous 2-hydroxypropyl-β-cyclodextrin", "format": "physicochemical", "excerpt": "Formulation of PAC-1. […] Complete dissolution requires acidification of the aqueous solution to pH 1.5-2, and then the solution is restored to pH 5-6."}, "GL-1": {"tested_on": "GL-1", "assay": "Cytotoxicity in GL-1 cells (sulforhodamine B, 72 h)", "format": "cell-based", "conditions": "Canis lupus familiaris, GL-1, Dog Lymphoma"}, "MDA-MB-231": {"tested_on": "MDA-MB-231", "assay": "Cytotoxicity in MDA-MB-231 cells (sulforhodamine B, 72 h)", "format": "cell-based", "conditions": "MDA-MB-231, Human Breast"}, "HeLa": {"tested_on": "HeLa", "assay": "Cytotoxicity in HeLa cells (sulforhodamine B, 72 h)", "format": "cell-based", "conditions": "Human Cervical"}, "OSW": {"tested_on": "OSW", "assay": "Cytotoxicity in OSW cells (sulforhodamine B, 72 h)", "format": "cell-based", "conditions": "Canis lupus familiaris, Dog Lymphoma"}, "[2]": {"assay": "Solubility in β-cyclodextran", "format": "physicochemical"}, "C57/BL6 mice": {"tested_on": "C57/BL6 mice", "assay": "Neurotoxicity in mice after intravenous administration", "format": "in vivo, mouse", "conditions": "for Neurotoxicity: Mice, preliminary results"}, "EL-4": {"tested_on": "EL-4", "assay": "Cytotoxicity in EL-4 cells (sulforhodamine B, 72 h)", "format": "cell-based", "conditions": "EL4, EL-4, Mouse Lymphoma"}, "[3]": {"tested_on": "U937 human lymphoma cells", "assay": "Cell death assay in U937 cells (sulforhodamine B, 72 h)", "format": "cell-based", "conditions": "Homo sapiens, U-937, 72 h", "experimental": "To each well was added 2 μL of 100× compound stock solutions in DMSO at varying concentrations so that the cells were treated with concentrations between 0 μM and 100 μM compound. Each concentration was tested in quintuplicate. In each plate 5 wells received 10 μM etoposide as a positive control and 5 wells received 2 μL of DMSO as a negative control. […] 1 Specifically, to each well of the plate was added 50 μL of an 80% (w/v) solution of TCA in H2O and the plates were allowed to rest at 4° C. overnight. The plates were then washed gently with a steam of H2O five times to remove the excess TCA and precipitated serum proteins. […] After staining, the wells were gently washed 5 times with 100 μL of 1% (v/v) acetic acid to remove the unbound dye. The plates were then allowed to air dry. […] The OD was then read at 510 nm in a Molecular Dynamics plate reader and the percent cell death calculated and normalized to the positive control (100% cell death) and the negative control (0% cell death). The percent cell death was averaged for each compound concentration and plotted as a function of compound concentration. The data were fit to a logistical dose response curve using Table curve 2D and the IC50 value was calculated. The experiment was repeated three times and the average of the calculated IC50 values was reported. The standard error of the mean (SEM) was determined and reported for the triplicate experiments.\nU-937 cells grow in culture as a suspension."}, "[4]": {"tested_on": "healthy research hound dog", "assay": "Neurotoxicity in dogs", "format": "in vivo", "excerpt": "Further information about this compound is described elsewhere herein."}, "SK-Mel-5": {"tested_on": "SK-Mel-5", "assay": "Cytotoxicity in SK-Mel-5 cells (sulforhodamine B, 72 h)", "format": "cell-based", "conditions": "SK-Mel-5, Human Melanoma"}, "Jurkat": {"tested_on": "Jurkat", "assay": "Cytotoxicity in Jurkat cells (sulforhodamine B, 72 h)", "format": "cell-based", "conditions": "Human Leukemia"}, "17-71": {"tested_on": "17-71", "assay": "Cytotoxicity in 17-71 cells (MTS cell viability assay)", "format": "cell-based", "conditions": "Canis lupus familiaris, 17-71, Dog Lymphoma"}, "U-937 cells": {"tested_on": "U-937 cells", "assay": "Induction of apoptosis, annexin V/PI staining", "format": "cell-based, human", "conditions": "50 μM, 12 hours", "experimental": "The cells were centrifuged (200 g for 5 min), washed with PBS (2 mL), resuspended in 500 μL Annexin V Binding Buffer. To each sample was added 10 μL of FITC conjugated Annexin V stain (Southern Biotech) and 10 μL of propidium iodide (Sigma) to a final concentration of 50 μg/mL. Cell populations were analyzed on a Benton Dickinson LSR II cell flow cytometer."}}, "note": "Like-named read-outs stand apart in the source and are kept apart here.", "data": [{"compound": "C=CCc1cccc(/C=N/NC(=O)CN2CCN(Cc3ccccc3)CC2)c1O", "note": "[PAC-1]", "values": [{"measurement": "solubility", "setting": "[1]; aqueous 200 mg/mL 2-hydroxypropyl-β-cyclodextrin solution, aqueous with cosolvent or surfactant or cyclodextrin, aqueous 200 mg/mL solution of 2-hydroxypropyl-β-cyclodextrin", "result": 20, "unit": "mg/mL"}, {"measurement": "stability in solution", "setting": "[1]; stored at 4° C., pH 5-6", "result": "at least 5 days"}, {"measurement": "IC50", "setting": "GL-1", "result": "4.9 ± 0.3", "unit": "µM"}, {"measurement": "IC50", "setting": "MDA-MB-231", "result": "9.9 ± 1", "unit": "µM"}, {"measurement": "IC50", "setting": "HeLa", "result": "15.5 ± 3.8", "unit": "µM"}, {"measurement": "IC50", "setting": "OSW", "result": "8.6 ± 1.3", "unit": "µM"}, {"measurement": "Solubility in β-Cyclodextran (mg β-CD/μmol Compound)", "setting": "[2]", "result": 5.3, "unit": "mg β-CD/μmol Compound"}, {"measurement": "Neurotoxicity", "setting": "C57/BL6 mice; 12.5 mg/kg", "result": "No"}, {"measurement": "Neurotoxicity", "setting": "C57/BL6 mice; 37.5 mg/kg", "result": "Yes"}, {"measurement": "clinical signs of toxicity", "setting": "C57/BL6 mice; mice, 10 mg/kg i.v., observed 24 hours", "result": "no clinical signs of toxicity were observed"}, {"measurement": "clinical signs of toxicity", "setting": "C57/BL6 mice; mice, 20 mg/kg i.v.", "result": "mild neurological symptoms including lethargy, and mild ataxia"}, {"measurement": "persistence of symptoms after injection", "setting": "C57/BL6 mice; mice, 20 mg/kg i.v.", "result": 20, "unit": "min"}, {"measurement": "ataxia (incidence)", "setting": "C57/BL6 mice; mice, 30 mg/kg i.v.", "result": "3/3"}, {"measurement": "clinical signs of toxicity", "setting": "C57/BL6 mice; mice, 30 mg/kg i.v.", "result": "overt signs of neurotoxicity"}, {"measurement": "duration of neurotoxicity", "setting": "C57/BL6 mice; mice, 30 mg/kg i.v.", "result": "approximately 15 minutes"}, {"measurement": "loss of balance (incidence)", "setting": "C57/BL6 mice; mice, 30 mg/kg i.v.", "result": "3/3"}, {"measurement": "onset of neurotoxicity after injection", "setting": "C57/BL6 mice; mice, 30 mg/kg i.v.", "result": "≤ 5", "unit": "min"}, {"measurement": "spasms (incidence)", "setting": "C57/BL6 mice; mice, 30 mg/kg i.v.", "result": "1/3"}, {"measurement": "clinical signs of toxicity", "setting": "C57/BL6 mice; mice, 50 mg/kg i.v.", "result": "acute neurotoxic symptoms with more pronounced ataxia and loss of balance"}, {"measurement": "IC50", "setting": "EL-4", "result": "3.8 ± 0.9", "unit": "µM"}, {"measurement": "IC50", "setting": "[3]; read-out: IC50 Value (μM), U-937, Human Lymphoma, 72 hours", "result": "9.3 ± 0.5", "unit": "µM"}, {"measurement": "IC50", "setting": "[3]; read-out: U937 (IC50 μM), 72 h exposure, sulforhodamine B assay", "result": "4.8 ± 1", "unit": "µM"}, {"measurement": "toxicity at higher doses", "setting": "[4]; dog, formulation with 2-hydroxypropyl-β-cyclodextrin", "result": "acute neurological toxicity (ataxia and seizure)"}, {"measurement": "duration of neurotoxicity", "setting": "[4]; one hound dog, 60 mg/kg i.v.", "result": 20, "unit": "min"}, {"measurement": "IC50", "setting": "SK-Mel-5", "result": "11.5 ± 3.6", "unit": "µM"}, {"measurement": "IC50", "setting": "Jurkat", "result": "5.7 ± 2.8", "unit": "µM"}, {"measurement": "IC50", "setting": "17-71", "result": "2.5 ± 0.9", "unit": "µM"}, {"measurement": "apoptosis (annexin V staining)", "setting": "U-937 cells", "result": "~40", "unit": "%"}]}]}
